Reference: US9540362B2, “Sphingosine-1-phosphate receptor agonists, methods of preparing the same, and pharmaceutical compositions containing the same as an active agent” (LG LIFE SCIENCES LTD., priority 2013, dated 2017)
Where a name gives a salt, the structure may show the parent alone.

Legend:
[1] = biological target: human sphingosine-1-phosphate 1 receptor (S1P1 receptor) (Homo sapiens, UniProt P21453); assay: Ca2+ inducing ability using CHO cells overexpressing human S1P1 receptor (Calcium 5 assay kit); assay type: cell-based; conditions: CHO cells overexpressing human S1P1, calcium RFU; S1P 1 μM = 100%
human sphingosine-1-phosphate 1 receptor (S1P1 receptor), sequence (P21453 whole entry): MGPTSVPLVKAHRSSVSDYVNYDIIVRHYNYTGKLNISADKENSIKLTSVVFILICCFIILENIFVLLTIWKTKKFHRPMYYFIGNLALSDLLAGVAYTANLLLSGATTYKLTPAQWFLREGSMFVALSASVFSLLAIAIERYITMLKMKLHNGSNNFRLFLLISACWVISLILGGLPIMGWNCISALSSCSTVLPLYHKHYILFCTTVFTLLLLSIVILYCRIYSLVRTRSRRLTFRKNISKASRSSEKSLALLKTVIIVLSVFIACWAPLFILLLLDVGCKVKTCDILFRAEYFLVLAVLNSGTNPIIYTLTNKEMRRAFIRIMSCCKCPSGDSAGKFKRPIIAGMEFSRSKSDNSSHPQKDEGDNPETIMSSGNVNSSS
From the text: Evaluation of Ca^2+ inducing ability of test compound using a cell line expressing human sphingosine-1-phosphate
CHO (Chinese hamster ovary) cells which overexpress human sphingosine-1-phosphate 1 receptor (S1P1 receptor) that react with sphingosine-1-phosphate (S1P) are used for a functional test method wherein an increase of calcium indicates a therapeutic efficacy of an agonist compound.
To prepare CHO cells which overexpress human S1P1˜S1P5, human clones for each subtype having HA at the N terminal residue (S1P1: EDG010TN00, S1P2: EDG020TN00, S1P3: EDG030TN00, S1P4: EDG060TN00, S1P5: EDG080TN00) were purchased from the Missouri S&T cDNA Resource Center and co-transfected with G-protein alpha subunit (G-alpha-16) into CHO-K1 cells.
A calcium measurement kit (Calcium 5 assay kit, Molecular Devices) was used to select an agonist compound. The principle of calcium measurement is that calcium-sensitive dyes are applied to cells, they enter into the cytoplasm of the cells during incubation, and when a ligand binds to a certain receptor to release calcium into the cytoplasm, the dyes bind to said calcium to induce fluorescence which is measured. This test method can sensitively measure only the intracellular calcium concentration change because any change that may occur outside the cells is masked by a masking dye.
The experimental procedure was as follows. One day before calcium measurement, CHO cells overexpressing hS1P1˜hS1P5 were dispensed into a 96-well plate (bottom clear black well) in 3×10^4 cells per well and cultured at 37° C. under 5% carbon dioxide condition for one day. 100 μl of calcium dyes mixed with Assay Buffer (1×HBSS, 20 mM HEPES, 2.5 mM probenecid, pH 7.4) were dispensed into culture solution in well and cultured at 37° C. for one hour. Test compounds were dissolved in 100% DMSO to prepare 1 μl solution per each concentration, and each solution was mixed with 199 μl Assay Buffer such that the concentrations were 50, 5, 0.5, 0.05, 0.005 and 0.0005 μM. The plate cultured with the calcium dyes was put into FlaxstationII (Molecular Devices), and the prepared test compounds (the final concentrations of the test compounds: 10, 1, 0.1, 0.01, 0.001 and 0.0001 μM) were programmed to be automatically inoculated in 50 μl per each well. For a total of 90 seconds, RFU (relative fluorescence unit) values were measured. The value of Reference (S1P substance 1 μM) deducting the blank value was set as 100%, and EC50 values of the test compounds were calculated by prism.

lymphocytes in blood = assay: Rat peripheral blood lymphocyte decrease; assay type: in vivo; conditions: male SD rat, 6 hours after administration
Procedure: Evaluation of Rat Peripheral Blood Lymphocyte Decrease
Lymphocyte decrease in blood by S1P1 agonist was evaluated using a male SD rat. After adapting a rat weighing about 250 g to a breeding facility for one week, a test compound was administered to it once. At 3 hours, 6 hours, 24 hours and 48 hours after administration, blood was taken from a tail caudal vein, and about 200 μl of the blood was put into an EDTA tube while preventing it from clotting, followed by measurement of the number of lymphocytes in blood. The number of lymphocytes was analyzed by a hematological examination device, Hemoanalyzer. The doses of the test compounds were 3 mg/kg for Example 52, 94, 108, 117, 142, 145, 146, 148 and 149 compounds, and 1 mg/kg for Example 150, 151, 153, 154, 155, 158, 159 and 161 compounds.

SMILES	EC50 [1] [nM]	Lymphocyte count (degree of decrease in lymphocyte number) (lymphocytes in blood; administered once, 1 mg/kg) [%]	Lymphocyte count (degree of decrease in lymphocyte number) (lymphocytes in blood; administered once, 3 mg/kg) [%]	Lymphocyte count (degree of decrease in lymphocyte number) (lymphocytes in blood; dose of the reference not stated) [%]
Cc1c(-c2noc(-c3ccc4c(cnn4C(C)C)c3)n2)ccc2c1CCN(CC(=O)O)C2 [Example 85, {6-[5-(1-isopropyl-1H-indazol-5-yl)-[1,2,4]oxadiazol-3-yl]-5-methyl-3,4-dihydro-1H-isoquinolin-2-yl}-acetic acid, trifluoroacetate]	10			
CC(C)n1nc(Cl)c2cc(COc3ccc4c(c3)CCC(CN3CCC(C(=O)O)C3)=C4Cl)ccc21 (stereo not shown) [Example 150, 1-[1-chloro-6-(3-chloro-1-isopropyl-1H-indazol-5-ylmethoxy)-3,4-dihydro-naphthalen-2-ylmethyl]-pyrrolidine-3-carboxylic acid]	8	−82		
CC(C)n1nc(Cl)c2cc(-c3nc(-c4cccc5c4CCN(S(N)(=O)=O)C5)no3)ccc21 [Example 108, 5-[5-(3-chloro-1-isopropyl-1H-indazol-5-yl)-[1,2,4]oxadiazol-3-yl]-3,4-dihydro-1H-isoquinoline-2-sulfonic acid amide]	20		−70	
CC(C)n1nc(Cl)c2cc(COc3ccc4c(c3)CCC(CN3CCC(C(=O)O)CC3)=C4Cl)cnc21 [Example 159, 1-[1-chloro-6-(3-chloro-1-isopropyl-1H-pyrazolo[3,4-b]pyridin-5-ylmethoxy)-3,4-dihydro-naphthalen-2-ylmethyl]-piperidine-4-carboxylic acid]	12	−80		
CC1=C(CN2CC(C(=O)O)C2)CCc2cc(OCc3ccc4c(c3)c(Cl)nn4C(C)C)ccc21 [Example 146, 1-[6-(3-chloro-1-isopropyl-1H-indazol-5-ylmethoxy)-1-methyl-3,4-dihydro-naphthalen-2-ylmethyl]-azetidine-3-carboxylic acid]	5		−78	
Cc1c(-c2noc(-c3ccc4c(c3)c(C)nn4C(C)C)n2)ccc2c1CCN(CC(=O)O)C2 [Example 117, {6-[5-(1-isopropyl-3-methyl-1H-indazol-5-yl)-[1,2,4]oxadiazol-3-yl]-5-methyl-3,4-dihydro-1H-isoquinolin-2-yl}-acetic acid, trifluoroacetate]	3		−80	
Cc1cc(C(C)CC(=O)O)ccc1-c1noc(-c2ccc3c(c2)c(Cl)nn3C(C)C)n1 (stereo not shown) [Example 129, 3-{4-[5-(3-chloro-1-isopropyl-1H-indazol-5-yl)-[1,2,4]oxadiazol-3-yl]-3-methyl-phenyl}-butyric acid, trifluoroacetate]	50			
Cc1c(CN2CC(C(=O)O)C2)cccc1-c1noc(-c2ccc3c(ccn3C(C)C)c2)n1 [Example 26, 1-{3-[5-(1-isopropyl-1H-indol-5-yl)-[1,2,4]oxadiazol-3-yl]-2-methyl-benzyl}-azetidine-3-carboxylic acid]	2			
CC(C)n1nc(Cl)c2cc(COc3ccc4c(c3)CCC(CN3CCC(F)(C(=O)O)C3)=C4Cl)ccc21 (stereo not shown) [Example 161, 1-[1-chloro-6-(3-chloro-1-isopropyl-1H-indazol-5-ylmethoxy)-3,4-dihydro-naphthalen-2-ylmethyl]-3-fluoro-pyrrolidine-3-carboxylic acid]	3	−65		
CC(C)n1nc(Cl)c2cc(COc3ccc4c(c3)CCC(CN3CCCC(C(=O)O)C3)=C4Cl)ccc21 (stereo not shown) [Example 155, 1-[1-chloro-6-(3-chloro-1-isopropyl-1H-indazol-5-ylmethoxy)-3,4-dihydro-naphthalen-2-ylmethyl]-piperidine-3-carboxylic acid]	27	−75		
Cc1c(-c2noc(-c3ccc4nn(C(C)C)cc4c3)n2)ccc2c1CCN(CC(=O)O)C2 [Example 97, {6-[5-(2-isopropyl-2H-indazol-5-yl)-[1,2,4]oxadiazol-3-yl]-5-methyl-3,4-dihydro-1H-isoquinolin-2-yl}-acetic acid, trifluoroacetate]	50			
Cc1c(-c2noc(-c3ccc4c(c3)c(Cl)nn4C(C)C)n2)ccc2c1CCN(CCC(=O)O)C2 [Example 94, 3-{6-[5-(3-chloro-1-isopropyl-1H-indazol-5-yl)-[1,2,4]oxadiazol-3-yl]-5-methyl-3,4-dihydro-1H-isoquinolin-2-yl}-propanoic acid, trifluoroacetate]	6		−82	
Cc1cc(CN2CC(C(=O)O)C2)ccc1-c1noc(-c2ccc3c(c2)c(Cl)cn3C(C)C)n1 [Example 3, 1-{4-[5-(3-chloro-1-isopropyl-1H-indol-5-yl)-[1,2,4]oxadiazol-3-yl]-3-methyl-benzyl}-azetidine-3-carboxylic acid]	23			
Cc1cc(CCC(=O)O)ccc1-c1noc(-c2ccc3c(c2)c(Cl)cn3C(C)C)n1 [Example 52, 3-{4-[5-(3-chloro-1-isopropyl-1H-indol-5-yl)-[1,2,4]oxadiazol-3-yl]-3-methyl-phenyl}-propanoic acid]	10		−80	
CC(C)n1ccc2cc(-c3nc(-c4ccc(CN5CC(C(=O)O)C5)cc4)no3)ccc21 [Example 2, 1-{4-[5-(1-isopropyl-1H-indol-5-yl)-[1,2,4]oxadiazol-3-yl]-benzyl}-azetidine-3-carboxylic acid]	25			
CCCCCCCCc1ccc(CCC(N)(CO)CO)cc1 [FTY-720, Fingolimod, reference compound]				−80
CCC(C)n1nc(Cl)c2cc(COc3ccc4c(c3)CCC(CN3CCC(C(=O)O)CC3)=C4Cl)cnc21 (stereo not shown) [Example 160, 1-[6-(1-sec-butyl-3-chloro-1H-pyrazolo[3,4-b]pyridin-5-ylmethoxy)-1-chloro-3,4-dihydro-naphthalen-2-ylmethyl]-piperidine-4-carboxylic acid]	19			
Cc1cc(CN2CC(C(=O)O)C2)ccc1-c1noc(-c2ccc3c(c2)c(C#N)cn3C(C)C)n1 [Example 4, 1-{4-[5-(3-cyano-1-isopropyl-1H-indol-5-yl)-[1,2,4]oxadiazol-3-yl]-3-methyl-benzyl}-azetidine-3-carboxylic acid]	23			
Cc1c(-c2noc(-c3ccc4c(c3)c(Cl)cn4C(C)C)n2)ccc2c1CCN(CC(=O)O)C2 [Example 58, {6-[5-(3-chloro-1-isopropyl-1H-indol-5-yl)-[1,2,4]oxadiazol-3-yl]-5-methyl-3,4-dihydro-1H-isoquinolin-2-yl}-acetic acid, hydrochloride]	20			
CC(C)n1ccc2cc(-c3nc(-c4cccc5c4CCCC5NS(N)(=O)=O)no3)ccc21 (stereo not shown) [Example 38, N-{5-[5-(1-isopropyl-1H-indol-5-yl)-[1,2,4]oxadiazol-3-yl]-1,2,3,4-tetrahydro-naphthalen-1-yl}-sulfamide]	50			
Cc1cc(CN2CC(C(=O)O)C2)ccc1-c1noc(-c2ccc3c(ccn3C(C)C)c2)n1 [Example 5, 1-{4-[5-(1-isopropyl-1H-indol-5-yl)-[1,2,4]oxadiazol-3-yl]-3-methyl-benzyl}-azetidine-3-carboxylic acid]	14			
Cc1cc(CCC(=O)O)ccc1-c1noc(-c2ccc3c(ccn3C(C)C)c2)n1 [Example 1, 3-{4-[5-(1-isopropyl-1H-indol-5-yl)-[1,2,4]oxadiazol-3-yl]-3-methyl-phenyl}-propanoic acid]	5			
